Source: US12116424B2, “Compounds and compositions for modulating Listeria virulence” (priority 2021, dated 2024)
Read-outs that look alike come from different tables or passages of the source. Where a SMILES comes first, the peptide text is derived from it. Bridges are numbered along the chain shown (N, C = ends). [ ]: non-standard residue; d: D form.

Tests used:
[1] = test system: L. monocytogenes EGD-e; assay type: cell-based, Listeria monocytogenes
Description: Biofilm assay protocol. Biofilms assays were adapted from previous reports and protocols.^51-52 Overnight cultures of L. monocytogenes EGD-e and ΔagrD were grown in BHI, then diluted 1:100 in LB. For single-point assays, 2 μL of agonists or antagonists at an appropriate concentration were added to wells in a clear 96-well microtiter plates. For dose-response assays, a stock solution of the select peptide were serially diluted in DMSO, then 2 μL of each concentration were transferred to the appropriate wells. Then, 198 μL of bacteria were added to their respective wells, using ΔagrD for agonist wells and EGD-e for antagonist wells. In each plate, additional vehicle controls for baseline biofilm formation of EGD-e and ΔagrD strains (2 μL of DMSO) were included, as well as a media control (200 μL of LB). Plates were incubated at room temperature for 24 hours statically, at which point plates were inverted over a glass waste container and gently shook to remove planktonic bacteria. The wells were gently washed with 200 μL of PBS twice, inverting again over the waste container to remove liquid. Then, 200 μL of 0.1% crystal violet solution (in water) were added to each well and incubated for 30 minutes. The wells were then washed with 200 μL of PBS three more times and left to air dry for 15 minutes. Remaining crystal violet was solubilized by the addition of 100 μL of 95% ethanol in water solution, pipetting up and down to mix, incubated for 10 minutes, then absorbance was read at 595 nm. Absorbance data was processed by normalizing to the EGD-e vehicle control (100%) and the LB media control (0%). Non-linear regression curves were fitted to the data sets in GraphPad Prism 7 by using variable slope (four-parameter) dose-response analysis to obtain potency, efficacy, and statistical information about the activity of tested peptides. Each well was tested with four technical replicates and three biological replicates. […]

[2] = biological target: T1, L. monocytogenes AgrC (Listeria monocytogenes serovar 1/2a, UniProt Q8YAR5); test: Fluorescence (agr-GFP) reporter agonism assay, ΔagrD reporter strain; assay type: cell-based; design: Emax: dose or concentration left out as unconfirmed
Method in brief: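 L. monocytogenes EGD-e strains carrying agr promoter-GFP plasmid: ΔagrD for agonism (normalized to 1 μM AIP), wild type for antagonism (normalized to DMSO). Peptides in 1% DMSO with diluted overnight culture in BHI, 24 h at 37 °C shaking; GFP fluorescence corrected for background and OD600, four-parameter dose-response fit.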

[3] = biological target: T1, L. monocytogenes AgrC; test: Fluorescence (agr-GFP) reporter antagonism assay, wild-type EGD-e reporter strain; assay type: cell-based
Source text: Construction of Listeria agr Reporter Strains. A gene block was designed and purchased from Integrated DNA Technologies to contain an EagI recognition site, the PII promoter of the agr system, the 3′ UTR of hly, super folder GFP, and a SaII recognition site. The gene block was digested with EagI and SaII, cloned into an EagI/SaII-cut pAM401 plasmid resulting in the plasmid pAM401-KW1, and then transformed into E. coli XL1-Blue competent cells. The insertion into pAM401 was confirmed using Kapa polymerase and primers DAP337 and DAP338, and additional confirmation via commercial sequencing. Purified plasmid was transformed into the conjugative E. coli S17 strain, which was used to conjugate to EGD-e and EGD-e ΔagrD to generate the agr-GFP reporter strains EGD-e:pAM401-KW1 and EGD-e ΔagrD:pAM401-KW1. Conjugation was verified using primers DAP337 and DAP338.
Fluorescence reporter assay protocol. For QS (agr) reporter assays, peptide stock solutions in DMSO (1 mM) were serially diluted in DMSO, and 2 μL of solution was added to each well in a black 96-well plate (polystyrene microtiter plate, Costar). Agonism assays utilized the ΔagrD reporter strain, with 2 μL of 100 μM AIP (final concentration 1 μM) as a positive control and 2 μL of DMSO as a negative control. Antagonism assays utilized the EGD-e reporter strain, with 2 μL of DMSO as a positive control. In both assays, wells containing only BHI media served as negative controls for normalization. An overnight culture of bacteria was diluted 1:50 in fresh BHI, then 198 μL were transferred to each well (excluding the media control wells). Plates were then incubated at 37° C. for 24 hours with shaking at 200 rpm. Fluorescence of GFP (excitation at 500 nm, emission at 540 nm) and OD600 of each well was measured using BioTek Synergy 2 plate reader. Measurements were processed by subtracting background fluorescence (BHI media), correcting by OD600, and the normalizing using the 1 μM AIP or the DMSO control for the agonism and antagonism assays, respectively. Non-linear regression curves were fitted to the data sets in GraphPad Prism 7 by using variable slope (four-parameter) dose-response analysis to obtain potency, efficacy, and statistical information about the activity of tested peptides. Each peptide was tested with three technical replicates and three biological replicates. All data derived from fluorescent reporter strains are represented with data points signifying the mean and error bars signifying the standard deviation from all replicates.
Preparation and Validation of Listeria agr Reporter Strains. […] However, adding exogenous AIP to the ΔagrD reporter results in an increase of fluorescence, indicating agr activity has been restored.

[4] = test system: L. monocytogenes EGD-e ΔagrD; test: Crystal violet biofilm assay, ΔagrD strain (agonists); assay type: cell-based, Listeria monocytogenes; conditions: for biofilm production compared to vehicle controls: 10 μM, ΔagrD bacteria
Description: Biofilm assay protocol. Biofilms assays were adapted from previous reports and protocols.^51-52 Overnight cultures of L. monocytogenes EGD-e and ΔagrD were grown in BHI, then diluted 1:100 in LB. For single-point assays, 2 μL of agonists or antagonists at an appropriate concentration were added to wells in a clear 96-well microtiter plates. For dose-response assays, a stock solution of the select peptide were serially diluted in DMSO, then 2 μL of each concentration were transferred to the appropriate wells. Then, 198 μL of bacteria were added to their respective wells, using ΔagrD for agonist wells and EGD-e for antagonist wells. In each plate, additional vehicle controls for baseline biofilm formation of EGD-e and ΔagrD strains (2 μL of DMSO) were included, as well as a media control (200 μL of LB). Plates were incubated at room temperature for 24 hours statically, at which point plates were inverted over a glass waste container and gently shook to remove planktonic bacteria. The wells were gently washed with 200 μL of PBS twice, inverting again over the waste container to remove liquid. Then, 200 μL of 0.1% crystal violet solution (in water) were added to each well and incubated for 30 minutes. The wells were then washed with 200 μL of PBS three more times and left to air dry for 15 minutes. Remaining crystal violet was solubilized by the addition of 100 μL of 95% ethanol in water solution, pipetting up and down to mix, incubated for 10 minutes, then absorbance was read at 595 nm. Absorbance data was processed by normalizing to the EGD-e vehicle control (100%) and the LB media control (0%). Non-linear regression curves were fitted to the data sets in GraphPad Prism 7 by using variable slope (four-parameter) dose-response analysis to obtain potency, efficacy, and statistical information about the activity of tested peptides. Each well was tested with four technical replicates and three biological replicates. All data derived from crystal violet biofilm assays are represented with data points signifying the mean and error bars signifying the standard deviation from all replicates.

[5] = read-out: Max Activation Observed

T1 sequence (Q8YAR5 entry or part of it): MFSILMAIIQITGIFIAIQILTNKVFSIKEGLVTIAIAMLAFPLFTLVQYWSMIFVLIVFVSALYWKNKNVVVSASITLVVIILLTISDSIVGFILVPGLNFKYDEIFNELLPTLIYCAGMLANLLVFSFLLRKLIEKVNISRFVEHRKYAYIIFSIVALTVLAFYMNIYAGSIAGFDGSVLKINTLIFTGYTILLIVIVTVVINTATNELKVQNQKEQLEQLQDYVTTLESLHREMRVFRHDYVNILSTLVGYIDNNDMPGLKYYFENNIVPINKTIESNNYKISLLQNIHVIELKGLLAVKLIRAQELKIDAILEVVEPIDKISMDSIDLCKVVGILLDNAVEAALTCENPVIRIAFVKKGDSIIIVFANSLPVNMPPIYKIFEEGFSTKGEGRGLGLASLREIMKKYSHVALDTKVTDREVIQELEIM

| SMILES | biofilm of wild-type (WT) strain (FIG. 9B) [1] | wild-type biofilm formation reduced by ([1]; 100 μM) [%] | IC50 ([1]; dose-response, wild-type biofilm, read-out: IC50 (biofilm formation)) [nM] | Emax [2, 5] [%] | antagonism activity (in words) [3] | biofilm formation of ΔagrD strain (FIG. 9A) [4] | biofilm production compared to vehicle controls [4] | increase in potency ([2]; agonism, relative to native AIP) | agonism activity (in words) ([2]; ΔagrD reporter) | Emax ([2]; read-out: Max Activation) [%] | Emax at 1 µM ([2]; read-out: Max Activation) [%] |
| --- | --- | --- | --- | --- | --- | --- | --- | --- | --- | --- | --- |
| CSCC[C@H]1NC(=O)[C@H](Cc2ccccc2)NC(=O)[C@H](NC(=O)[C@@H](N)CCCCN)CSC(=O)[C@H](C(C)C)NC(=O)[C@H](Cc2ccccc2)NC1=O [A1K/C2dC/M4dM, K-(dC-F-dM-F-V)] (H-K[dC]F[dM]FV; thioester 2-C) | reduces biofilm | 90 | 1860 | 8.1 | inhibiting wild-type activity to levels similar to basal ΔagrD activity |  |  |  |  |  |  |
| CSCC[C@H]1NC(=O)[C@H](Cc2ccccc2)NC(=O)[C@@H](NC(=O)[C@H](C)N)CSC(=O)[C@H](C(C)C)NC(=O)[C@H](Cc2ccccc2)NC1=O [AIP M4dM, A-(C-F-dM-F-V)] (H-ACF[dM]FV; thioester 2-C; N-terminus assumed) |  |  |  | 111 |  | increase biofilm formation | doubled | three-fold | no effect on agonism |  |  |
| CSCC[C@@H]1NC(=O)[C@H](Cc2ccccc2)NC(=O)[C@@H](NC(=O)[C@H](C)N)CSC(=O)[C@H](C(C)C)NC(=O)[C@H](Cc2ccccc2)NC1=O [AIP, A-(C-F-M-F-V), reference compound] (H-ACFMFV; thioester 2-C; N-terminus assumed) |  |  |  | 114 |  | increase biofilm formation | doubled |  |  | 114 | 114 |
